One series deals with Aβ40. As to the kind of experiment: Assessment of Aβ peptide levels in rat brain and plasma following BACE1 inhibition (Aβ40 ELISA). It counts as in vivo. The note with it: 3 hours post dose, vs vehicle. As for the experimental part: Assessment of Aβ Peptide Levels in Rat Brain and Plasma Following BACE1 Inhibition. Animals.
(§1) Young adult Male Sprague Dawley rats of approximately 250 g weight were purchased from Charles River and received 0-30 mg/kg of vehicle (10% HP betaCD+1M MeSO4, pH 2.5) or test compounds (dissolved in vehicle) only by oral gavage (p.o). The compounds are dosed at a volume of […]. Cohorts of 5-10 animals were established for each treatment condition.
(§2) At T=180 minutes after initial dosing the animals were stunned and decapitated with a guillotine. Trunk-blood was sampled in EDTA coated tubes after decapitation of the animal. The blood was centrifuged at 2200 G at 4° C. for 15 minutes and the plasma was collected and frozen at −80° C. The blood was aliquoted for Aβ ELISA and DMPK analysis. Immediately following sacrifice, the brain was extracted and split into 2 halves. The right hemibrains were snap frozen on dry ice and stored at −80° C. The left half was dissected; with the front forebrain taken for Aβ ELISA and the remainder used for DMPK analysis. These samples were also snap frozen on dry ice and stored at −80° C. until use for analysis.
The cortex samples were thawed slightly on wet ice before they were homogenized with a small volume dispersing instrument (T10 basic ULTRA-TURRAX®) which was set at speed 5 for approximately 5-7 sec. The tissue was processed in a 10 times volume of the weight, for example 100 mg of tissue was homogenized in 1000 μL of Homogenization buffer. Homogenization buffer: 50 ml Milli Q water+[…]+0.2% Diethylamin (DEA)+1 tablet of Complete Protease inhibitor cocktail+1 nM 4-(2-aminoethyl)benzenesulfonyl fluoride hydrochloride irreversible serine protease inhibitor (AEBSF).
After homogenization 450 μL aliquots of the samples are collected into a 1.5 ml Eppendorf tube and placed on wet ice, 0.5% NP-40 (50 ul) was added to all samples and then they were incubated on ice for 30 min. After which all samples were sonicated using an Ultrasonic homogenizer with 20 kHz homogeneous sound (SONOPLUS HD2070, Bandelin Electronic) 10 pulse set at 12-13% power to extract all the Aβ species. The samples were then centrifuged (Ole Dich 157 MPRF Micro centrifuge) at 20000 G for 20 minutes at 4° C. After centrifugation 285 μL of the supernatant was pipetted into 600 μL microtubes tubes and neutralized with 15 μL of 1M Tris-HCL buffer.
WAKO 294-62501 Human/Rat Abeta amyloid (40) kit was used for all ELISA analyses. 30 μL plasma samples or 30 μL of the cortex supernatants generated as described above were placed in 600 μL microtubes tubes on wet ice. To this 30 μL of 8M Urea (AppliChem A1049, 9025) are added to generate a 2-fold dilution. Both plasma and cortex supernatants are incubated on ice for 30 min. Standard rows were prepared from the standard peptide stock provided in the kit and standard diluent containing 1.6M Urea (200 μL 8M Urea+800 μL of standard diluent) and 0.8M Urea (400 μL 8M Urea+3600 μL Standard diluent). A serial 2-fold dilution of Aβ40 from 100 pmol/ml to 0 pmol/L was prepared for the assay.
After incubation with urea, all samples were further diluted by addition of 5 times standard diluent from the Kit. This was done by adding 240 μL Standard Diluent to 60 μL sample/urea mixture, which was then mixed well. 100 μL of each diluted sample was pipetted into designated wells of the ELISA plate in duplicates. The plate was then covered and incubated overnight at 4° C. The following day, the ELISA kit was brought to room temperature before use. The incubated plate was washed 5 times with the 20× washing solution diluted in Milli Q water. 100 μL HRP-conjugate was applied to each well, and the plate was covered and incubates at 4° C. for 1 hr. The wash was repeated again for 5 times. 100 μL 3,3′,5,5′-Tetramethylbenzidine (TMB) solution was applied to each well and the plate was covered and incubated in the dark at room temperature for 30 minutes. […]

Series [1] is described as follows: Bioanalysis of brain and plasma samples (exposure, UPLC-MS/MS). It counts as in vivo, rat. As to conditions: male, Sprague Dawley, po, 3 hours post dose; for Kp at 3 h: brain/plasma, rat, read-out: Brain/Plasma ratio; for concentration at 3 h: read-out: Exp. Here is the method:
as §1, §2
TC was determined in plasma and brain homogenate using UltraPerformance LC® (UPLC®) chromatography followed by tandem-MS (MS/MS) detection.
Brain homogenate was prepared by homogenizing the brain 1:4 (v/v) with water:2-propanol:DMSO (50:30:20 v/v/v) followed by centrifugation and collection of the supernatant. Calibration standards and QC samples were prepared using a Hamilton robot. 150 μL of ISTD in acetonitrile (1 ng/mL ISTD) was added to 25 μL of calibration standards, QC samples and test samples (plasma and brain homogenate) using a Biomek robot. After centrifugation (6200 g, 4° C., 20 min) 100 μL supernatant from each sample was transferred to a new plate and mixed with 100 μL water with 0.1% formic acid using a Biomek robot (method file InVivo transfer). After a quick centrifugation (6200 g, 4° C., 5 min) the samples were placed in the auto-sampler.
MS/MS detection was done with an Applied Biosystems Sciex API 4000 instrument in positive-ion electrospray ionisation mode. TC and ISTD were detected at a parent>daughter mass to charge ratio (m/z). Nitrogen was used for the nebulizer and collision gases. The peak area correlated linearly with the plasma and brain concentration of the analytes in the range of 1.00-1000 ng/mL plasma and 5.00-5000 ng/g brain (corrected for dilution). If the plasma/brain sample drug concentration was above 1000 ng/mL or 5000 ng/g, the sample was diluted appropriately in blank plasma/blank brain homogenate before analysis.
• Waters Acquity UPLC HSS C18 SB (pH 2-8) 1.8 μm, 2.1×30 mm. • Mobile phase A: 0.1% aq. formic acid or 0.1% aq. ammonium hydroxide • Mobile phase B: Acetonitrile with 0.1% aq. formic acid or 0.1% aq. ammonium hydroxide. • Weak wash: Methanol • Strong wash: Acetonitrile/Isopropanol/formic acid (50/50/2 v/v/v) • Flow: 0.6 mL/min • Run time: 3 min. • To waste: 0-0.5 min • Temperature: 40° C. Gradient: […]
Compounds 11 and 15 were administered at doses of 10 mg/kg p.o. and brain and plasma samples were collected at 3 hours post dose and the following exposures were measured as described above.

Like-named read-outs stand apart in the source and are kept apart here.

Turning to `COc1cnc(C(=O)Nc2cc(F)c(F)c([C@@]3(CF)N=C(N)CCC3(F)F)c2)cn1` [Compound 11, (S)-N-(3-(6-amino-3,3-difluoro-2-(fluoromethyl)-2,3,4,5-tetrahydropyridin-2-yl)-4,5-difluorophenyl)-5-methoxypyrazine-2-carboxamide], the Aβ40 reduction came to 43% in the series on Aβ40 (rat brain, 10 mg/kg p.o.); 50% in the series on Aβ40 (rat brain, 30 mg/kg p.o.); 31% in the series on Aβ40 (rat plasma, 10 mg/kg p.o.); 37% with Aβ40 (rat plasma, 30 mg/kg p.o.). The values for the Kp at 3 h in series [1] (10 mg/kg p.o.) and in series [1] (30 mg/kg p.o.) were 1.8 and 1.3, respectively. In addition, the concentration at 3 h in series [1] (rat brain, 10 mg/kg p.o.) was 1760 ng/g; in series [1] (rat brain, 30 mg/kg p.o.) it was 4210 ng/g; in series [1] (rat plasma, 10 mg/kg p.o.), 1120 ng/g; in series [1] (rat plasma, 30 mg/kg p.o.) it was 3290 ng/g.

The values are drawn from US10058540B2, “2-amino-5,5-difluoro-6-(fluoromethyl)-6-phenyl-3,4,5,6-tetrahydropyridines as BACE1 inhibitors” (H. Lundbeck A/S, priority 2014, dated 2018).
